Test system: Hepa1-6 cells
Experiment: Factor IX production by ELISA in Hepa1-6 cells treated with topoisomerase inhibitor and FIX donor AAV (integration at albumin locus)
Type: cell-based, mouse
Details: 0.5-5 uM inhibitor, FIX measured at days 4 and 7
Description: For instance, one-hundred thousand Hepa1-6 cells were seeded per well of a 24-well dish and grown until 70% confluent in DMEM+10% FBS. […] Cells were then transfected with one of two Factor IX (FIX)-containing adeno-associated viruses (AAVs) donors (e.g., AAV2/6 vectors at 6e10 vg per sample) and Factor IX production on days 0-4 (day 4) and days 5-7 (day 7) assayed by ELISA.
The FIX donor AAVs contain homology arms (complementary to the 3′ end of the mouse albumin gene) flanking an albumin 3′ intron splice acceptor-albumin 3′ exon-2A-Factor IX cassette. In one instance, the Factor IX cassette was positioned in the forward orientation (F), allowing Factor IX to be produced if the DNA was integrated into the Albumin locus through HDR by the use of the homology arms.
Therefore, we determined the stimulation of Factor IX integration/expression that is specific to integration at the albumin gene in the proper orientation; this number is roughly equal to the Factor IX produced from the forward-orientation virus minus the Factor IX produced by the reverse-orientation virus.

**Q.** For CC[C@@]1(O)C(=O)OCc2c1cc1n(c2=O)Cc2cc3ccccc3nc2-1 [camptothecin], which “FIX protein (forward-orientation AAV donor)” value (human FIX AAV donor in forward (F) orientation) is on record?
**A.** dose-dependent increase in FIX protein

**Q.** What about the “FIX protein (reverse-orientation AAV donor)” value (human FIX AAV donor in reverse (R) orientation) of the same molecule?
**A.** generally not
